In patent publication US10329309B2, “3-(3H-imidazo[4,5-B]pyridin-2-yl)-1H-pyrazolo[4,3-B]pyridines and therapeutic uses thereof” (Samumed, LLC, priority 2015, dated 2019):

Tests used:
Format in all cases: cell-based
[1] = system: Wnt activity (Sp5-Luc reporter, SW480 colon carcinoma cells); assay: Screening assay for Wnt activity: Sp5-Luc reporter gene assay in SW480 cells; conditions: Homo sapiens, overnight incubation, 10-point dose-response from 10 μM
Description: The screening assay for Wnt activity is described as follows. Reporter cell lines can be generated by stably transducing cancer cell lines (e.g., colon cancer) or primary cells (e.g., IEC-6 intestinal cells) with a lentiviral construct that includes a Wnt-responsive promoter driving expression of the firefly luciferase gene.
SW480 colon carcinoma cells were transduced with a lentiviral vector expressing luciferase with a human Sp5 promoter consisting of a sequence of eight TCF/LEF binding sites. SW480 cells stably expressing the Sp5-Luc reporter gene and a hygromycin resistance gene were selected by treatment with 150 μg/mL of hygromycin for 7 days. These stably transduced SW480 cells were expanded in cell culture and used for all further screening activities. Each compound was dissolved in DMSO as a 10 mM stock and used to prepare compound source plates. Serial dilution (1:3, 10-point dose-response curves starting from 10 μM) and compound transfer was performed using the ECHO 550 (Labcyte, Sunnyvale, Calif.) into 384-well white solid bottom assay plates (Greiner Bio-One) with appropriate DMSO backfill for a final DMSO concentration of 0.1%. For Sp5-Luc reporter gene assays, the cells were plated at 4,000 cells/well in 384-well plates with medium containing 1% fetal bovine serum and incubated overnight at 37° C. and 5% CO2. Following incubation, 20 μl of BrightGlo luminescence reagent (Promega) was added to each well of the 384-well assay plates. The plates were placed on an orbital shaker for 2 min and then luminescence was quantified using the Envision (Perkin Elmer) plate reader. Readings were normalized to DMSO only treated cells, and normalized activities were utilized for EC50 calculations using the dose-response log (inhibitor) vs. response -variable slope (four parameters) nonlinear regression feature available in GraphPad Prism 5.0 (or Dotmatics). For EC50 of >10 μM, the percent inhibition at 10 μM is provided.

SW480 colon cancer cells = assay: Cell viability assay (CellTiter-Blue), four days; conditions: Homo sapiens, 96 h, CellTiter-Blue cell viability
Procedure: Representative compounds were screened using the following assay procedure to assess the effect on cell viability as described below.
Each compound was dissolved in DMSO as a 10 mM stock and used to prepare compound source plates. Serial dilution (1:3, 8-point dose-response curves from 10 μM to 0.0045 μM) and compound transfer was performed using the ECHO 550 (Labcyte, Sunnyvale, Calif.) into 96-well clear bottom, black-walled plates (Corning-Costar).
Approximately 2×10^3 SW480 colon cancer cells were seeded into each well and allowed to incubate in the presence or absence of compound for four days at 37° C./5% CO2. Eight replicates of DMSO-treated cells served as controls and cells treated with compound were performed in duplicate.
After incubation, 20 μL of CellTiter-Blue (Promega) was added to each well allowed to incubate for approximately 3 hours. This reagent was a buffered solution which contains resazurin, metabolically active cells were able to reduce rezarurin (blue) into resorufin (pink) which was highly fluorescent. This measured fluorescence was used as a readout for cell viability.
After incubation, the plates were read at Ex 560 nm Em 590 nm (Cytation 3, BioTek). Dose-response curves were generated and EC50 concentration values were calculated using non-linear regression curve fit in the GraphPad Prism (San Diego, Calif.) or Dotmatics' Studies Software (Bishops Stortford, UK). For EC50 of >10 μM, the percent inhibition at 10 μM is provided.

[2] = system: primary human fibroblasts derived from IPF patients (LL29 cells), α-smooth muscle actin (αSMA); assay: Inhibition of the fibrotic process: TGF-β1-treated primary human fibroblasts from IPF patients, αSMA staining; conditions: Fibroblast, 96 h, LL29 fibroblasts from IPF patients, TGF-β1 20 ng/mL, 4 days, inhibition of fibrotic process
Description: Representative compounds were screened using primary human fibroblasts (derived from IPF patients) treated with TGF-β1 to determine their ability to inhibit the fibrotic process.
Primary human fibroblasts derived from IPF patients (LL29 cells) [^1Xiaoqiu Liu, et. al., “Fibrotic Lung Fibroblasts Show Blunted Inhibition by cAMP Due to Deficient cAMP Response Element-Binding Protein Phosphorylation”, Journal of Pharmacology and Experimental Therapeutics (2005), 315(2), 678-687; ^2Watts, K. L., et. al., “RhoA signaling modulates cyclin D1 expression in human lung fibroblasts; implications for idiopathic pulmonary fibrosis”, Respiratory Research (2006), 7(1), 88] were obtained from American Type Culture Collection (ATCC) and expanded in F12 medium supplemented with 15% Fetal Bovine Serum and Penicillin/Streptomycin.
Each compound was dissolved in DMSO as a 10 mM stock and used to prepare compound source plates. Serial dilution (1:2, 11-point dose-response curves from 10 μM to 1.87 nM) and compound transfer was performed using the ECHO 550 (Labcyte, Sunnyvale, Calif.) into 384-well clear bottom assay plates (Greiner Bio-One) with appropriate DMSO backfill for a final DMSO concentration of 0.1%. LL29 cells are plated at 1,500 cells/well in 80 μL/well F12 medium supplemented with 1% Fetal Bovine Serum. One hour after addition of the cells, TGF-β1 (Peprotech; 20 ng/mL) was added to the plates to induce fibrosis (ref. 1 and 2 above). Wells treated with TGF-β1 and containing DMSO were used as controls. Cells were incubated at 37° C. and 5% CO2 for 4 days. Following incubation for 4 days, SYTOX green nucleic acid stain (Life Technologies [Thermo Fisher Scientific]) was added to the wells at a final concentration of 1 μM and incubated at room temperature for 30 min. Cells were then fixed using 4% formaldehyde (Electron Microscopy Sciences), washed 3 times with PBS followed by blocking and permeabilization using 3% Bovine Serum Albumin (BSA; Sigma) and 0.3% Triton X-100 (Sigma) in PBS. Cells were then stained with antibody specific to α-smooth muscle actin (αSMA; Abcam) (ref. 1 and 2 above) in 3% Bovine Serum Albumin (BSA; Sigma) and 0.3% Triton X-100 (Sigma) in PBS, and incubated overnight at 4° C. Cells were then washed 3 times with PBS, followed by incubation with Alexa Flor-647 conjugated secondary antibody (Life Technologies [Thermo Fisher Scientific]) and DAPI at room temperature for 1 hour. Cells were then washed 3 times with PBS and plates were sealed for imaging. αSMA staining was imaged by excitation at 630 nm and emission at 665 nm and quantified using the Compartmental Analysis program on the CellInsight CX5 (Thermo Scientific). Dead or apoptotic cells were excluded from analysis based on positive SYTOX green staining. % of total cells positive for αSMA were counted in each well and normalized to the average of 11 wells treated with TGF-β1 on the same plate using Dotmatics' Studies Software. The normalized averages (fold change over untreated) of 3 replicate wells for each compound concentration were used to create dose-responses curves and EC50 values were calculated using non-linear regression curve fit in the Dotmatics' Studies Software. For EC50 of >10 μM, the percent inhibition at 10 μM is provided.

IL-6 (THP-1 cells) = assay: Inhibition of IL-6 in LPS-stimulated THP-1 monocytes (HTRF); conditions: Homo sapiens, LPS 500 ng/mL, IL-6 by HTRF
Procedure: Human monocyte cell line (THP-1 cells; Catalog # TIB-202, ATCC, Manassas, Va.) were cultured in Roswell Park Memorial Institute (RPMI) 1640 Medium (Catalog #21870-100, Buffalo, N.Y.) with 1% L-glutamine, 1% HEPES, 1% Sodium Pyruvate, 2% Sodium Bicarbonate supplemented with 100 units/mL penicillin, 50 μg/mL streptomycin, 2-mercaptoethanol (0.05 mM) [basal medium] and 10% fetal bovine serum (Catalog #16140089, Life Technologies, Carlsbad, Calif.) at 37° C. and 5% CO2.
THP-1 cells were cultured in basal media with 1% FBS for 24 hours before the start of the assay. Each compound was dissolved in DMSO as a 10 mM stock and used to prepare compound source plates. Serial dilution (1:3, 10-point dose-response curves starting from 10 μM) and compound transfer was performed using the ECHO 550 (Labcyte, Sunnyvale, Calif.) into 384-well white low volume assay plates (Greiner Bio-One) with appropriate DMSO backfill for a final DMSO concentration of 0.1%. THP-1 cells were plated at 5000 cells/well in the 384-well plates and incubated at 37° C. for 2 h. 500 ng/mL of LPS was added after 2 hours and cells were incubated for another 22 hours at 37° C. Plates were spun in a centrifuge for 1 minute at […] and a mixture of anti-IL6 XL665, and anti-IL6 Cryptate diluted in reconstitution buffer (Cisbio Inc.) was added to each well. Following incubation for 3 hrs at room temperature, Homogeneous Time-Resolved Fluorescence (HTRF) was measured using the Envision (Perkin Elmer) at 665 nm and […]. The ratio of fluorescence at 665 nm to 620 nm was used as a readout for IL6 quantification. All samples were processed in duplicate. Readings were normalized to DMSO treated cells and normalized activities were utilized for EC50 calculations using the dose-response log (inhibitor) vs. response -variable slope (four parameters) nonlinear regression feature available in GraphPad Prism 5.0 (or Dotmatics). For EC50 of >10 μM, the percent inhibition at 10 μM is provided.

EC50 [1] | EC50 (SW480 colon cancer cells) | EC50 (IL-6 (THP-1 cells)) | SMILES | EC50 [2]
0.62 µM | 0.927 µM | 0.638 µM | Cc1ncc(-c2ccc3[nH]nc(-c4nc5c(-c6cc(F)cc(NCCN(C)C)c6)ccnc5[nH]4)c3n2)n1C [Compound 781, N^1-(3-(2-(5-(1,2-Dimethyl-1H-imidazol-5-yl)-1H-pyrazolo[4,3-b]pyridin-3-yl)-3H-imidazo[4,5-b]pyridin-7-yl)-5-fluorophenyl)-N^2,N^2-dimethylethane-1,2-diamine] | 4.8 µM
2.66 µM | 2.22 µM | 4.77 µM | CN(C)CCNc1cc(F)cc(-c2ccnc3[nH]c(-c4n[nH]c5ccc(-c6cncc(OCc7ccccc7)c6)nc45)nc23)c1 [Compound 790, N^1-(3-(2-(5-(5-(Benzyloxy)pyridin-3-yl)-1H-pyrazolo[4,3-b]pyridin-3-yl)-3H-imidazo[4,5-b]pyridin-7-yl)-5-fluorophenyl)-N^2,N^2-dimethylethane-1,2-diamine] | 2.5 µM

SMILES | EC50 [1] | EC50 (SW480 colon cancer cells) | EC50 (IL-6 (THP-1 cells)) | EC50 [2]
Cc1ccc(-c2ccnc3[nH]c(-c4n[nH]c5ccc(C6=CCNCC6)nc45)nc23)s1 [Compound 730, 3-(7-(5-Methylthiophen-2-yl)-3H-imidazo[4,5-b]pyridin-2-yl)-5-(1,2,3,6-tetrahydropyridin-4-yl)-1H-pyrazolo[4,3-b]pyridine] | 3.17 µM | 3.48 µM | 0.558 µM | 0.489 µM
